This note sets out measurements from patent US5565493A, “Collagen metabolism ameliorant and its use in the stimulation of hair growth” (Kanebo, Ltd., priority 1990, dated 1996).

Data set [1] deals with human fibrosarcoma cell strain HT-P11. In words: Action of MSE for promoting procollagenase production (FITC-collagen collagenase activity of culture supernatant). It counts as cell-based.
Method: A test was carried out using anchorage independent cell strain which is derived from a human fibrosarcoma cell strain HT 1080 (ATCC CCL121) and growable in a serum-free, protein-free medium (referred to as "human fibrosarcoma cell strain HT-P11".). Namely, the above-described human fibrosarcoma cell strain HT 1080 (ATCC CCL1211) was cultured in the presence of serum in a flask having a base area of 25 cm^2 and the medium was replaced by the HF-AV medium. Replacing a fifth to half part of the cultured suspension with a fresh HF-AV medium every 3-4 days, the culture was continued in a serum-free, protein-free medium. The thus grown cells were used. The cells were pre-cultured as below to prepare a cell suspension which was then tested.
The human fibrosarcoma cell strain HT-P11 was suspended with a density of 1×10^5 cells/ml in the HF-AV medium. Flasks (each having a base area of 75 cm^2) were charged, respectively, with 20 ml of the resulting suspension, and stationarily cultured at 37° C. for 3 days in a 95% air/5% carbon dioxide gas atmosphere. […]
Using a type-I collagen labeled with fluorescein isothiocyanate (hereinafter abbreviated as "FITC") (a 1 mg/ml conc. FITC/collagen acetic acid solution, manufactured by Cosmo Bio Co.) as a substrate solution, the activity (unit/ml) of the above collagenase solution was determined in accordance with the following procedure.
For data set [2], the system named is Rats of hepatic fibrosis induced by CCl4. In words: Effect of MSE in medical treatment for hepatic fibrosis (Hyp in liver and blood, blood plasma biochemistry). In kind it is in vivo, male rats of Wistar origin. The conditions noted are these: mean ± standard error (n = 5). How it is done: (§1) A 2 ml/kg dose of an equivalent mixture of carbon tetra-chloride (CCl4) and olive oil was administered hypodermically to the back of male rats of Wistar origin (5 weeks old; a weight of 122-134 g; and 5 rats/group) twice a week (on Monday and Thursday) for 10 weeks to produce rats of hepatic fibrosis. A 3 ml/kg dose of a 66.6 mg/ml conc. MSE aqueous solution was administered perorally once a day for continual 7 weeks (except Sundays) from the 4th week after the commencement of the CCl4 administration.
Then, the whole blood was gathered from the abdominal aorta and collected in a test tube treated with heparin. This was centrifuged to obtain blood plasma. The blood plasma was stored at -80° C. until the under-mentioned biochemical examinations.
(§2) Further, after gathering the whole-blood, the liver was extracted, weighed and divided into halves under an ice-chilled condition. Then, one of the halves was frozen at -80° C. for quantification of hydroxyproline (hereinafter abbreviated as "Hyp") in the liver and the other half was fixed with a 10% formaline solution for a histological examination.
(§3) On the other hand, there were provided, as an untreated group, a group of the rats of hepatic fibrosis administered with 3 ml/kg of refined water in lieu of the MSE aqueous solution according to the same schedule as the above and, as a group of normal rats, a group bred for 10 weeks without administering CCl4 and the MSE aqueous solution. Blood-gathering and liver-extraction were conducted on these groups in the same manner as the above.
(§4) Then, using the above each liver and blood plasma, the Hyp in the liver and blood were quantified. Additionally, the Hyp is an index of the quantity of the collagen [Methods of Biochemical Analysis, Vol. 15, p. 25 (1967)]. Further, biochemical examinations of the blood plasma [refer to the under-described items (b)-(h)] and histological examinations of the liver [refer to the under-described item (i)], as indices of liver injury, were conducted.
(a) Quantities of the Hyp in liver and blood.
(a-1) Quantity of the Hyp in a liver: about 100 mg of a liver were weighed precisely and added with 250 μl of physiological salt solution. Then, the liver was disintegrated by agitating vigorously (at 28,000 rpm for 30 seconds) with a homogenizer (PHYSCOTRON™, manufactured by Niti-On Medical and Physical Instruments Mfg. Co.).
The obtained suspension was centrifuged (at 5,000 rpm for 10 min.) and separated into a supernatant sample and a precipitation sample. By adding a 6N hydrochloric acid, each sample was increased to 2 ml and hydrolyzed at 110° C. for 24 hours. The hydrolyzate solution was centrifugally condensed to remove hydrochloric acid therefrom and the condensate was dissolved in a 0.01N hydrochloric acid.
The obtained solution was quantified according to a determination method of amino acids by a high-performance liquid chromatography with a post-column derivatization [Proceedings of the National Academy of Sciences of the U.S.A., Vol. 72, No. 2, p. 619 (1975)] to find quantities of the Hyp in the supernatant sample and precipitation sample, respectively. Then, a quantity of the Hyp per unit weight of the liver (μmol/g of liver) was calculated from the total quantity of the Hyps in the supernatant sample and precipitation sample and the weight of the liver.
(a-2) Quantity of the Hyp in blood: 100 μl of blood plasma was admixed with 100 μl of a 5 w/v % sulfo-salicylic acid aqueous solution under an ice-chilled condition and centrifugally separated (10,000 rpm; for 3 min.) to obtain a supernatant liquor. The Hyp in the supernatant liquor was quantified according to the above-mentioned determination method of amino acids (μmol/1).
(b) Quantity of glutamic-pyruvic transaminase (hereinafter abbreviated as "GPT"):
(b-3) Measurement of test sample.
(c) Quantity of glutamic-oxaloacetic transaminase (hereinafter abbreviated as "GOT"): […]

For data set [3], the system named is male mice of ICR strain. Description: Acute toxicity. In kind it is in vivo. The conditions noted are these: single peroral dose 5 g/kg of body weight, 5 male mice, observed 7 days. How it is done:
An acute toxicity was examined as follows:
To 5 male mice of ICR strain (5 weeks old; a weight of 24~28 g), a 25 g/ml conc. MSE aqueous solution that had been prepared by dissolving MSE in refined water was perorally administered once in a dose of […] of the body weight (5 g/kg of the body weight, as MSE).

The subject of data set [4] is male rabbits of Japanese native strain. In words: Skin irritative test (Draize method). It counts as in vivo. As for the experimental part: Using male rabbits of Japanese native strain (a weight of about 3 kg), a skin irritative test was conducted in accordance with the Draize method [Appraisal of the Safety of Chemicals in Foods, Drugs and Cosmetics, p.46 (1959) edited and published by the Editorial Committee, Association of Food & Drug Official of U.S.A.].
An abraded region (injured skin) was produced on the hair-trimmed back of the rabbits. An adhesive plaster for a patch test (RIBBON-AID™ of 1.2 cm×1.6 cm, manufactured by Liba-Tape & Co., Ltd.) was impregnated with 0.1 ml of a 1 wt. % MSE aqueous solution that had been prepared by dissolving MSE in refined water and attached onto the injured skin and a normal skin, respectively. After 24 hours, the plaster was detached to observe erythematic and edematous conditions of the skins. After 48 hours from detaching of the plaster, the same observation was made.
Based on the above scores and the following equation, primary irritant scores were calculated.
Primary irritant score=(A24 +A48)/2+(B24
Then, irritation degrees of the test compounds were appraised based upon the primary irritative scores and the criteria shown in Table 6.

Data set [5] relates to Rats of hepatic fibrosis induced by CCl4. In words: Histological examination of liver. It counts as in vivo, male rats of Wistar origin. The settings on record: as compared with the untreated group; hematoxylin-eosin. How it is done:
as §1, §2, §3, §4
(i) Histological examination of liver: a liver was sliced according to a usual method and, after staining with hematoxylin-eosin, it was microscopically observed.

In the case of `CN[C@@H](CO)C(=O)O` [MSE, N-methyl-L-serine], the Production of procollagenase in data set [1] (mean ± standard error (N = 3), control 3.7 ± 0.2, 600 μM MSE solution, 0.4 ml added to 2 ml culture, 13 days, P < 0.01) is given as 7.9 ± 0.7 unit/ml of culture solution. In data set [1] (versus no additives (control)), this compound gave a Production promotion rate of 114%. Further, in data set [2] (Bessey-Lowry's method, untreated 1270 ± 90, p < 0.01), the “f: Quantity of alkaline phosphatase” value is given as 956 ± 114 unit/l. Also, in data set [2] (Malloy-Evelyn's method, untreated 0.36 ± 0.02, p < 0.1), the “e: Quantity of gross bilirubin” value was 0.26 ± 0.05 m9/dl. Moreover, the “g: Thymol turbidimetric test value (TTT)” value in data set [2] (blood plasma, untreated 0.26 ± 0.06) was 0.18 ± 0.13 U of Kunkel. Besides, the “h: Zinc sulphate turbidimetric test value (ZTT)” value in data set [2] (blood plasma, untreated 0.78 ± 0.11, p < 0.01) is 0.26 ± 0.07 U of Kunkel. In addition, in data set [2] (blood plasma, untreated 17.6 ± 0.7, p < 0.1), the “d: Quantity of γ-glutamyl transpeptidase (γ-GTP)” value is reported as 14.4 ± 1.7 U/liter. In data set [2] (blood plasma, untreated 30.6 ± 1.1, p < 0.1), the “a-2: Quantity of the Hyp in blood” value is given as 39.1 ± 3.6 μmol/1. The “b: Quantity of glutamic-pyruvic transaminase (GPT)” value in data set [2] (blood plasma, untreated 948 ± 92, p < 0.01) came out at 537 ± 182 Reitman-Frankel unit. Moreover, in data set [2] (blood plasma, untreated 2170 ± 184, p < 0.01), the “c: Quantity of glutamic-oxaloacetic transaminase (GOT)” value came out at 875 ± 324 Reitman-Frankel unit. In addition, the “a-1: Quantity of the Hyp in liver” value in data set [2] (peroral 3 ml/kg of 66.6 mg/ml once a day, 7 weeks, untreated 10.0 ± 1.5, p < 0.1) is on record as 6.79 ± 0.82 μmol/g of liver. Also, the deaths by administration entry in data set [3] is “no deaths”. Besides, in data set [4] (0.1 ml of 1 wt. % MSE aqueous solution, injured and normal skin, after 24 and 48 hours), the primary irritative score result is listed as “zero”. Moreover, the appraisal of irritation entry in data set [4] (based on primary irritative score, 1 wt. % MSE aqueous solution) is “light irritation”. Also, in data set [5], the cholangioepithelial cytogenesis entry is “mitigated”, the cholangiolar hyperplasia entry is recorded as “mitigated” and the diffuse hepatocyte vacuolization result is reported as “mitigated”.
